pIC50: −log10 of the molar value.
biological target: T1, Zcchc11 enzyme (Homo sapiens, UniProt Q5TAX3); assay: TUTase assay (Zcchc11 assay, Lin28a-dependent polyuridylation of pre-let-7); format: biochemical; details: Lin28a-dependent Zcchc11 (Z11) TUTase assay; read-out: Potency Lin28a-dep Z11 IC50
T1 construct: made in house; host or cells: HEK293 cells (Zcchc11); E. coli Rosetta II (LIN28A)
T1 sequence (Q5TAX3 212-1420): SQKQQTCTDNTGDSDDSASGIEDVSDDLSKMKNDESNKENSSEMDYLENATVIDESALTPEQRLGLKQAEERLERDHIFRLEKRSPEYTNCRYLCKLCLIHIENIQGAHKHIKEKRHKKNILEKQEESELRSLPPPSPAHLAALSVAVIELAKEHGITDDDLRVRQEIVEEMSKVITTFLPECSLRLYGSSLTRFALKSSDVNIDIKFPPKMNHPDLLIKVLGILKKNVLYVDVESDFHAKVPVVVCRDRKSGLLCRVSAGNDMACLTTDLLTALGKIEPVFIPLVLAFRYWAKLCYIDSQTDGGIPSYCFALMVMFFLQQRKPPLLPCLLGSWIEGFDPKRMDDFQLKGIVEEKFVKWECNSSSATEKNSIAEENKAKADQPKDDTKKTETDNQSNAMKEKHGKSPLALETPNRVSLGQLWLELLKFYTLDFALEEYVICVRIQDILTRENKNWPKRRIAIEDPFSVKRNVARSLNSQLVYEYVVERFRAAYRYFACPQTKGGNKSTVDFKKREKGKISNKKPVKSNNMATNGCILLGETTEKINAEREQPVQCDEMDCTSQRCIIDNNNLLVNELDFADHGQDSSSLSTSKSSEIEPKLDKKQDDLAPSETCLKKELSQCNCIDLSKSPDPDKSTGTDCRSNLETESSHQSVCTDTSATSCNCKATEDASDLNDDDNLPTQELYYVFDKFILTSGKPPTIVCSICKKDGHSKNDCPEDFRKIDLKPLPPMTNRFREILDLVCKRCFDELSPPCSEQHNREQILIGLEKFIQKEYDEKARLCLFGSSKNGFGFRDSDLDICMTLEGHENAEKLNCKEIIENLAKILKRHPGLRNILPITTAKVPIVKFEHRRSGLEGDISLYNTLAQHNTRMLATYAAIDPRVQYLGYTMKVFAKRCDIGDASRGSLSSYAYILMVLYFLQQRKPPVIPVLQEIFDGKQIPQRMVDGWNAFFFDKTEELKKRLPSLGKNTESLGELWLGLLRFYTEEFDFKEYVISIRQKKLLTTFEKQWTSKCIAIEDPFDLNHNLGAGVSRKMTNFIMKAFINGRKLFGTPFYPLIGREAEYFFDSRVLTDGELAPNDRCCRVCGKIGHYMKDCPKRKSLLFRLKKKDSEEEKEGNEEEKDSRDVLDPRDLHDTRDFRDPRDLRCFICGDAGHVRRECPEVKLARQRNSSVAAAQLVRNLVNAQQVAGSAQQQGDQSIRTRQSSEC
Procedure, shortened: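 Polyuridylation measured as fluorescein loss when a rhodamine-labelled A20 probe anneals to U-tails added to fluorescein pre-let-7 (2 nM). Reaction: truncated Zcchc11 0.2 nM, E. coli-made LIN28A 10 nM, UTP 5 uM, HEPES pH 7.3, room temperature. Initial rates fitted to four-parameter IC50.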

`COc1ccc(Cl)c(OC[C@H]2C[C@@H]3C[C@@H]3N2c2cc3c(cc2Cl)c(=O)c(C(=O)O)cn3-c2ccc(N3CC(N(C)C)C3)nc2)n1` [Example 661, 6-chloro-7-((1S,3R,5S)-3-(((3-chloro-6-methoxypyridin-2-yl)oxy)methyl)-2-azabicyclo[3.1.0]hexan-2-yl)-1-(6-(3-(dimethylamino)azetidin-1-yl)pyridin-3-yl)-4-oxo-1,4-dihydroquinoline-3-carboxylic acid] and `COc1ccc(C)c(OC[C@H]2C[C@H]3C[C@H]3N2c2cc3c(cc2Cl)c(=O)c(C(=O)O)cn3-c2ccc(N3CC(N(C)C)C3)nc2)n1` [Example 676, 6-chloro-1-(6-(3-(dimethylamino)azetidin-1-yl)pyridin-3-yl)-7-((1R,3R,5R)-3-(((6-methoxy-3-methylpyridin-2-yl)oxy)methyl)-2-azabicyclo[3.1.0]hexan-2-yl)-4-oxo-1,4-dihydroquinoline-3-carboxylic acid] cannot be ordered by pIC50: ≥ 6.00 for the first, ≥ 6.00 for the second.

`COc1cnc(OC[C@H]2C[C@H]3C[C@H]3N2c2cc3c(cc2Cl)c(=O)c(C(=O)O)cn3-c2ccc(N3CC(N(C)C)C3)nc2)c(Cl)c1` [Example 662, 6-chloro-7-((1R,3R,5R)-3-(((3-chloro-5-methoxypyridin-2-yl)oxy)methyl)-2-azabicyclo[3.1.0]hexan-2-yl)-1-(6-(3-(dimethylamino)azetidin-1-yl)pyridin-3-yl)-4-oxo-1,4-dihydroquinoline-3-carboxylic acid] and `COc1ccnc(OC[C@H]2C[C@H]3C[C@H]3N2c2cc3c(cc2Cl)c(=O)c(C(=O)O)cn3-c2ccc(N3CC(N(C)C)C3)nc2)c1Cl` [Example 674, 6-chloro-7-((1R,3R,5R)-3-(((3-chloro-4-methoxypyridin-2-yl)oxy)methyl)-2-azabicyclo[3.1.0]hexan-2-yl)-1-(6-(3-(dimethylamino)azetidin-1-yl)pyridin-3-yl)-4-oxo-1,4-dihydroquinoline-3-carboxylic acid] cannot be ordered by pIC50: ≥ 6.00 for the first, ≥ 6.00 for the second.

`COc1ccc(Cl)c(OC[C@H]2CC3(CC3)CN2c2cc3c(cc2Cl)c(=O)c(C(=O)O)cn3-c2ccc(N3CC(N(C)C)C3)nc2)n1` [Example 663, (R)-6-chloro-7-(6-(((3-chloro-6-methoxypyridin-2-yl)oxy)methyl)-5-azaspiro[2.4]heptan-5-yl)-1-(6-(3-(dimethylamino)azetidin-1-yl)pyridin-3-yl)-4-oxo-1,4-dihydroquinoline-3-carboxylic acid] and `CN(C)C1CN(c2ccc(-n3cc(C(=O)O)c(=O)c4cc(Cl)c(N5CC6(CC6)C[C@@H]5COc5nc(OC6CC6)ccc5Cl)cc43)cn2)C1` [Example 675, (R)-6-chloro-7-(6-(((3-chloro-6-cyclopropoxy-pyridin-2-yl)oxy)methyl)-5-azaspiro[2.4]heptan-5-yl)-1-(6-(3-(dimethylamino)azetidin-1-yl)pyridin-3-yl)-4-oxo-1,4-dihydroquinoline-3-carboxylic acid] cannot be ordered by pIC50: ≥ 6.00 for the first, ≥ 6.00 for the second.

`CN(C)C1CN(c2ccc(-n3cc(C(=O)O)c(=O)c4cc(Cl)c(N5CC[C@@H](F)[C@@H]5COc5ncccc5Cl)cc43)cn2)C1` [Example 664, 6-chloro-7-((2S,3R)-2-(((3-chloropyridin-2-yl)oxy)methyl)-3-fluoropyrrolidin-1-yl)-1-(6-(3-(dimethylamino)azetidin-1-yl)pyridin-3-yl)-4-oxo-1,4-dihydroquinoline-3-carboxylic acid] and `CN(C)C1CN(c2ccc(-n3cc(C(=O)O)c(=O)c4cc(Cl)c(N5CC[C@H](O)[C@@H]5COc5ncccc5Cl)cc43)cn2)C1` [Example 667, 6-chloro-7-((2S,3S)-2-(((3-chloropyridin-2-yl)oxy)methyl)-3-hydroxypyrrolidin-1-yl)-1-(6-(3-(dimethylamino)azetidin-1-yl)pyridin-3-yl)-4-oxo-1,4-dihydroquinoline-3-carboxylic acid] cannot be ordered by pIC50: ≥ 6.00 for the first, ≥ 6.00 for the second.

`CN(C)c1ccc(Cl)c(OC[C@H]2CC3CC3N2c2cc3c(cc2Cl)c(=O)c(C(=O)O)cn3-c2ccc(N3CC(N(C)C)C3)nc2)n1` (stereo partly drawn) [Example 665, 6-chloro-7-((3R)-3-(((3-chloro-6-(dimethylamino)pyridin-2-yl)oxy)methyl)-2-azabicyclo[3.1.0]hexan-2-yl)-1-(6-(3-(dimethylamino)azetidin-1-yl)pyridin-3-yl)-4-oxo-1,4-dihydroquinoline-3-carboxylic acid] and `CN(C)C1CN(c2ccc(-n3cc(C(=O)O)c(=O)c4cc(Cl)c(N5[C@@H](COc6nc(OC7CC7)ccc6Cl)C[C@H]6C[C@H]65)cc43)cn2)C1` [Example 672, 6-chloro-7-((1R,3R,5R)-3-(((3-chloro-6-cyclopropoxy-pyridin-2-yl)oxy)methyl)-2-azabicyclo[3.1.0]hexan-2-yl)-1-(6-(3-(dimethylamino)azetidin-1-yl)pyridin-3-yl)-4-oxo-1,4-dihydroquinoline-3-carboxylic acid] cannot be ordered by pIC50: ≥ 6.00 for the first, ≥ 6.00 for the second.

`CN(C)C1CN(c2ccc(-n3cc(C(=O)O)c(=O)c4cc(Cl)c(N5CCC[C@H]5COc5ncccc5Cl)cc43)cn2)C1` [Example 666, (S)-6-chloro-7-(2-(((3-chloropyridin-2-yl)oxy)methyl)pyrrolidin-1-yl)-1-(6-(3-(dimethylamino)azetidin-1-yl)pyridin-3-yl)-4-oxo-1,4-dihydroquinoline-3-carboxylic acid] and `CN(C)C1CN(c2ccc(-n3cc(C(=O)O)c(=O)c4cc(F)c(N5CCC[C@H]5COc5ncccc5Cl)cc43)cn2)C1` [Example 670, (S)-7-(2-(((3-chloropyridin-2-yl)oxy)methyl)pyrrolidin-1-yl)-1-(6-(3-(dimethylamino)azetidin-1-yl)pyridin-3-yl)-6-fluoro-4-oxo-1,4-dihydroquinoline-3-carboxylic acid] cannot be ordered by pIC50: ≥ 6.00 for the first, 5.00 to 6.00 for the second.

`COc1ccnc(OC[C@@H]2CCCN2c2cc3c(cc2Cl)c(=O)c(C(=O)O)cn3-c2ccc(N3CC(N(C)C)C3)nc2)c1Cl` [Example 668, (S)-6-chloro-7-(2-(((3-chloro-4-methoxypyridin-2-yl)oxy)methyl)pyrrolidin-1-yl)-1-(6-(3-(dimethylamino)azetidin-1-yl)pyridin-3-yl)-4-oxo-1,4-dihydroquinoline-3-carboxylic acid] and `COc1ccnc(OC[C@H]2C[C@H]3C[C@H]3N2c2cc3c(cc2F)c(=O)c(C(=O)O)cn3-c2ccc(N3CC(N(C)C)C3)nc2)c1Cl` [Example 673, 7-((1R,3R,5R)-3-(((3-chloro-4-methoxypyridin-2-yl)oxy)methyl)-2-azabicyclo[3.1.0]hexan-2-yl)-1-(6-(3-(dimethylamino)azetidin-1-yl)pyridin-3-yl)-6-fluoro-4-oxo-1,4-dihydroquinoline-3-carboxylic acid] cannot be ordered by pIC50: ≥ 6.00 for the first, ≥ 6.00 for the second.

`CO[C@H]1CCN(c2cc3c(cc2Cl)c(=O)c(C(=O)O)cn3-c2ccc(N3CC(N(C)C)C3)nc2)[C@H]1COc1ncccc1Cl` [Example 669, 6-chloro-7-((2S,3S)-2-(((3-chloropyridin-2-yl)oxy)methyl)-3-methoxypyrrolidin-1-yl)-1-(6-(3-(dimethylamino)azetidin-1-yl)pyridin-3-yl)-4-oxo-1,4-dihydroquinoline-3-carboxylic acid] and `CN(C)C1CN(c2ccc(-n3cc(C(=O)O)c(=O)c4cc(F)c(N5CC[C@@H](F)[C@@H]5COc5ncccc5Cl)cc43)cn2)C1` [Example 671, 7-((2S,3R)-2-(((3-chloropyridin-2-yl)oxy)methyl)-3-fluoropyrrolidin-1-yl)-1-(6-(3-(dimethylamino)azetidin-1-yl)pyridin-3-yl)-6-fluoro-4-oxo-1,4-dihydroquinoline-3-carboxylic acid] cannot be ordered by pIC50: ≥ 6.00 for the first, ≥ 6.00 for the second.

For `COc1ccc(Cl)c(OC[C@H]2C[C@H]3C[C@H]3N2c2nc3c(cc2Cl)c(=O)c(C(=O)O)cn3-c2ccc(N3CC(N(C)C)C3)nc2)n1` [Example 677, 6-chloro-7-((1R,3R,5R)-3-(((3-chloro-6-methoxypyridin-2-yl)oxy)methyl)-2-azabicyclo[3.1.0]hexan-2-yl)-1-(6-(3-(dimethylamino)azetidin-1-yl)pyridin-3-yl)-4-oxo-1,4-dihydro-1,8-naphthyridine-3-carboxylic aci], the pIC50 was ≥ 6.00.
